Data: PMC11191602, “A novel and selective fluorescent ligand for the study of adenosine A2B receptors” (Pharmacology Research & Perspectives, 2024)

What was measured:
human NLuc‐A3R = molecular target: T1, human NLuc‐A3R (Homo sapiens, UniProt P0DMS8); experiment: NanoBRET saturation binding in stable HEK293G cell line expressing NLuc‐A3R; conditions: non‐specific defined with 1 μM MRS‐1220; PSB603‐BY630 at concentrations up to 500 nM
T1 construct: expressed in transfected cells
T1 sequence (P0DMS8 1-318): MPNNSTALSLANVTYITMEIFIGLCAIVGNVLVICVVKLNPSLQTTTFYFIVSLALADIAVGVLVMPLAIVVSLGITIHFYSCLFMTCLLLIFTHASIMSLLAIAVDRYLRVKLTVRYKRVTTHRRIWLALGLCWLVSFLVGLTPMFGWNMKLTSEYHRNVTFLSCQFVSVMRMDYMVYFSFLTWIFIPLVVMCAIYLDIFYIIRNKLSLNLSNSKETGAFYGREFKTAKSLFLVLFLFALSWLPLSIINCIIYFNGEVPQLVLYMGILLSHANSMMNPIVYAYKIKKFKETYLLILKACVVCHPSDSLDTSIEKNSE
Description: (§1) Saturation and competition binding assays were performed as previously described.[36] Briefly, cells were seeded in 96‐well white clear‐bottomed Greiner plates pre‐treated with 10 μg/mL poly‐D‐lysine (Sigma‐Aldrich, Missouri USA) at a density of 30 000–35 000 cells per well in DMEM supplemented with 10% FBS. […] The NanoLuc substrate, furimazine (Promega Corporation, Wisconsin, USA), was then added to each well (1:400 dilution) and the plate was incubated for 10 min in the dark at 37°C. The resulting bioluminescence resonance energy transfer (BRET) was measured using a PHERAstar FS plate reader (BMG Labtech) at 37°C. For each well, filtered light emissions at 460 nm (80 nm bandpass) and >610 nm (longpass) for the BODIPY630/650 ligand were simultaneously measured. BRET ratios were calculated by dividing the 610 nm emission by the 460 nm emission. All conditions were performed in 2–6 replicates within each plate. For kinetic experiments, cells were preincubated for 10 min with 1:400 dilution of furimazine prior to addition of 200 nM PSB603‐BY630 and BRET ratios determined every 0.5 min. At 60 min, 10 μM MRS‐1706 was added and the ligand‐binding kinetics followed for a further 60 min.

endogenous A2BR = molecular target: T2, endogenous A2BR (Homo sapiens, UniProt P29275); experiment: cAMP GloSensor luminescence assay in HEK293G cells endogenously expressing A2BR; format: cell-based; conditions: agonist alone, n=5
T2 construct: HEK293G cells that express the cAMP biosensor Glosensor also endogenously express both A2BR and A2AR; host or cells: HEK293G
T2 sequence (P29275 1-332): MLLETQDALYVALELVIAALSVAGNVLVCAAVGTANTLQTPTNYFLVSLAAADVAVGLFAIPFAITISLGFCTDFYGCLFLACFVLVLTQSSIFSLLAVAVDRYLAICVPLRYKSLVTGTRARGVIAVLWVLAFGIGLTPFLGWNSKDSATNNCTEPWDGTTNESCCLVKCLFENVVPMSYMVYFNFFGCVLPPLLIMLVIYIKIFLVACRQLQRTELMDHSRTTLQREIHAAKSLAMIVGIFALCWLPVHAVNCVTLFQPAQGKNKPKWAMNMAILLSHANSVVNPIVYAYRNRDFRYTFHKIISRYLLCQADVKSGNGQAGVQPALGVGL
Description: (§2) The cAMP GloSensor™ luminescence assay was performed according to the manufacturer's instructions (Promega Corporation, Madison, WI, USA). Briefly, after 24 h incubation at 37°C and 5% CO2 after cell plating (40 000 cells/well in 100 μL), medium was aspirated from each well of the 96‐well plate. Cells were incubated in 50 μL HEPES buffered saline solution (HBSS; 2 mM sodium pyruvate, 145 mM NaCl, 10 mM D‐glucose, 5 mM KCl, 1 mM MgSO4.7H2O, 10 mM HEPES, 1.3 mM CaCl2, 1.5 mM NaHCO3 in double‐distilled water, pH 7.45) containing 3% GloSensor™ cAMP reagent at 37°C for 1.5 h. For agonist studies, an initial baseline luminescence read was made at time zero, the plate was then removed from the plate‐reader and a further 50 μL HBSS containing agonist (2× final concentration) or HBSS (vehicle control) added. Luminescence was measured on an open channel (gain of 3600) immediately after these additions, and then continuously over 60 min, reading each well once every minute, by a PHERAstar FSX microplate reader (BMG Labtech, Offenburg, Germany) at 37°C. Increases in luminescence are indicative of intracellular cAMP accumulation, thus the temporal changes in relative cytosolic cAMP concentration were measured upon agonist or vehicle addition. Antagonist action was determined following 30 min pre‐incubation of HBSS in the presence of 20 and 200 nM PSB603‐BY630 and read as above. All conditions were performed in triplicates within each plate.

NLuc‐A2BR [1] = molecular target: T3, NLuc‐A2BR (Homo sapiens, UniProt P29275); experiment: cAMP GloSensor luminescence assay in HEK293G cells overexpressing NLuc‐A2BR; format: cell-based; conditions: agonist alone, n=5
T3 construct: expressed in transfected cells
T3 sequence (P29275 1-332): T2 sequence (P29275 1-332)
Description: as §2

NLuc‐A2BR [2] = molecular target: T3, NLuc‐A2BR; experiment: NanoBRET competition binding against 50 nM PSB603‐BY630 in HEK293G cells expressing NLuc‐A2BR; conditions: for Ki: read-out: Appararent Log K i (converted)
Description: as §1, with “min.” for “min. At 60 min, 10 μM MRS‐1706 was added and the ligand‐binding kinetics followed for a further 60 min.”
The IC 50 values were then used to calculate the K i values using the Cheng‐Prussoff equation: Ki=IC50/1+L/KD where [L] is the concentration of PSB603‐BY630 in nM, and K D is the dissociation constant of that fluorescent ligand in nM.

NLuc‐A2BR [3] = molecular target: T3, NLuc‐A2BR; experiment: NanoBRET imaging of PSB603‐BY630 binding to HEK293G cells expressing NLuc‐A2BR; conditions: 100 nM PSB603‐BY630, co‐incubation with 10 μM MRS‐1706, 30 min
Description: Cells were seeded onto 35 mm Cellview 4‐quadrant culture dishes (Greiner Bio‐one), which have a 10 mm glass coverslip bottom, in DMEM supplemented with 10% FBS at a density of 100 000 cells per quadrant 2 days prior to experiment in total volume of 500 μL. On the day of the experiment medium was replaced with HBSS in the presence or absence of PSB603‐BY630 (100 nM) and/or MRS1706 (10 μM) and incubated for 30 min at 37°C before imaging. Bioluminescence and NanoBRET imaging were performed on an Olympus LuminoView 200 microscope with a 60× NA1.42 oil immersion objective with a 0.5× tube lens, following addition of furimazine (1:800 dilution) (Promega). Images were captured by a C9100‐23B IMAGE EMX2 camera (Hamamatsu, Japan) with gain set at 200 for all channels. Filtered bioluminescence was captured using a 438/24 bandpass filter, BRET in the presence of PSB603‐BY630 was captured using a 650/50 nm bandpass filter. For the NLuc‐A2BR stable cell line exposure times were set at 10 s for filtered bioluminescence and 75 sec for BRET. Raw intensity values were determined for three regions of interest per experiment per condition and the BRET ratio calculated by dividing the raw intensity recorded from the BRET capture by the filtered bioluminescence capture. Corrected BRET ratios were determined by subtracting the BRET ratio determined from a control quadrant (HBSS alone). […]

human A2BR = molecular target: human A2BR; parameters: method as in PMID 23286920; conditions: membranes from CHO cells expressing the human A2BR ref 13; cited from earlier work

With `COc1ccc(-n2nc3c(NC(=O)CCC(=O)NCCOCCOCCNC(=O)CCCCCNC(=O)COc4ccc(/C=C/C5=[N+]6C(=Cc7ccc(-c8cccs8)n7[B-]6(F)F)C=C5)cc4)nc4ccccc4n3c2=O)cc1` [AV039] the “specific binding to NLuc‐A3R” value (human NLuc‐A3R) was “high affinity specific binding”.

`N#Cc1c(N)nc(SCC(N)=O)c(C#N)c1-c1ccc(OCC2CC2)cc1` [BY 60–6583, 2‐[[6‐Amino‐3,5‐dicyano‐4‐[4‐(cyclopropylmethoxy)phenyl]‐2‐pyridinyl]thio]‐acetamide] showed an Emax (endogenous A2BR; HEK293G, read-out: Endogenous HEK293G EMAX (% of response to 3 μM BAY‐60‐6583)) of 104 ± 3.09%, an EC50 (endogenous A2BR; read-out: Endogenous HEK293G Log EC50 (converted)) of 129 nM and an Emax (NLuc‐A2BR [1]; HEK293G, read-out: HEK293G A2BAR EMAX (% of response to 0.3 μM BAY‐60‐6583)) of 100 ± 1.29%. It also gave an EC50 (NLuc‐A2BR [1]; read-out: HEK293G A2BAR Log EC50 (converted)) of 18.6 nM.

With `O=C(Cc1ccccc1)Nc1nc2ccc(Cl)cc2c2nc(-c3ccco3)nn12` [MRS1220, N‐[9‐Chloro‐2‐(2‐furanyl)[1,2,4]‐triazolo[1,5‐c]quinazolin‐5‐yl]benzene acetamide] the “Appararent Log K i” value (NLuc‐A2BR [2]; calculated from IC50 (Cheng‐Prussoff) assuming competition with 50 nM PSB603‐BY630 for the same site, mean ± S.E.M., n=5) was −6.40 ± 0.19 and the “Log IC50” value (NLuc‐A2BR [2]; inhibition of the binding of 50 nM PSB603‐BY630, mean ± S.E.M., n=5) was −5.82 ± 0.19.

In the case of `CCCn1c(=O)c2[nH]c(-c3ccc(OCC(=O)Nc4ccc(C(C)=O)cc4)cc3)nc2n(CCC)c1=O` [MRS1706, N‐(4‐Acetylphenyl)‐2‐[4‐(2,3,6,7‐tetrahydro‐2,6‐dioxo‐1,3‐dipropyl‐1H‐purin‐8‐yl)phenoxy]acetamide], the “effect on PSB603‐BY630 binding to cell surface receptors (BRET imaging)” value (NLuc‐A2BR [3]) is reported as “completely prevented”, the IC50 (NLuc‐A2BR [2]) is reported as 36.3 nM and the Ki (NLuc‐A2BR [2]) is reported as 9.77 nM.

`COc1ccc(CCCn2ncc3c2nc(N)n2nc(-c4ccco4)nc32)cc1` [SCH442416, 2‐(2‐Furanyl)‐7‐[3‐(4‐methoxyphenyl)propyl]‐7H‐pyrazolo[4,3‐e][1,2,4]triazolo[1,5‐c]pyrimidin‐5‐amine] gave an IC50 (NLuc‐A2BR [2]) of 9550 nM and a Ki (NLuc‐A2BR [2]) of 2570 nM.

In the case of `O[C@H]1CC[C@H](Nc2nc(-c3ccccc3)nc3[nH]ccc23)CC1` [SLV320, trans‐4‐[(2‐Phenyl‐7H‐pyrrolo[2,3‐d]pyrimidin‐4‐yl)amino]cyclohexanol], the IC50 (NLuc‐A2BR [2]) is reported as 6460 nM and the Ki (NLuc‐A2BR [2]) is reported as 1740 nM.

In the case of `CCCn1c(=O)[nH]c2nc(-c3ccc(S(=O)(=O)N4CCN(c5ccc(Cl)cc5)CC4)cc3)[nH]c2c1=O` [[^3H]‐PSB603], the Kd (human A2BR) is given as 3.6 nM.
